The results in this text go back to patent EP3290412A1, “HIV-1 NUCLEOCAPSID INHIBITORS” (Università degli Studi di Siena, priority 2016, dated 2018).

Read-outs that look alike come from different tables or passages of the source.

One assay concerns the target NC(11-55) (Human immunodeficiency virus type 1, UniProt P12493). The assay can be described thus: NC inhibition assay (NC-induced cTAR DNA destabilization, fluorescence). Particulars: for inhibition at 100 µM: single point screening, positive = >25% inhibition at 100µM. The class given is biochemical, HIV-1. In outline: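 Doubly labelled cTAR (0.1 µM, Alexa488/Dabcyl) pre-complexed with 1 µM Zn-loaded NC(11-55) for 15 min, then compound added for a further 15 min; run at 20 °C in Tris-HCl pH 7.5, 30 mM NaCl, 0.2 mM MgCl2. Fluorescence read at ex 480/em 520 nm. IC50 taken from dose-response fit of % inhibition of NC-induced fluorescence increase.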

Assay [1] addresses T1, full length (1-55) HIV-1 NCp7 (Human immunodeficiency virus type 1 group M subtype B, UniProt P12493).
T1 construct: recombinant full length (1-55) HIV-1 NCp7 proteins; made in house
The assay can be described thus: Electromobility Shift Assay (EMSA), competition for ssDNA binding. Conditions: NCp7 300 nM, M13mp18 ssDNA; positive = >25% inhibition at 100µM. In outline: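 Recombinant NL4-3 NCp7 (300 nM in the pre-mix) was combined with compound in 20 mM Tris-HCl pH 7.4, 2 mM MgCl2, 100 mM NaCl, 1 mM DTT, then M13mp18 ssDNA was added for 25 min at 37 °C. Complexes were run on 1% agarose/0.5x TBE and stained with SybrGold. IC50 is the concentration at which bound ssDNA migrated 50% of the bound–unbound distance (triplicate).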
(In general: Mobility shift assays separate free from complexed probe on a gel.)

Assay [2] concerns HIV-1 reference strain NL4-3. The assay can be described thus: BiCycle assay (MT-2 then TZM-bl cells). Type of assay: cell-based. In outline:
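MT-2 cells were infected with NL4-3 in the presence of five-fold compound dilutions. After 72 h, the supernatant was passed to TZM-bl cells. Two days later, luciferase luminescence was read and IC50 calculated, giving a readout that spans the whole replication cycle.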

[3] abbreviates: Human immunodeficiency virus 1, NL43, TZM-bl, read-out: BiCycle IC50 nM.
Where [4] appears, read: Human immunodeficiency virus 1, NL43, MT-2 cells 72 hours then TZM-bl cells two days, NL4-3, read-out: BiCycle IC50.

The IC50 is the concentration at which inhibition is half-maximal. Broadly, the inhibition is the relative decrease from the control value, in per cent. High values mean a response far below the control, low ones a response near the control.

On NC(11-55), `C[C@@H](NC(=O)c1nc(-c2ccccn2)nc(O)c1O)C1CCCCC1` [Compound 5, (R)-N-(1-cyclohexylethyl)-5,6-dihydroxy-2-(pyridin-2-yl)pyrimidine-4-carboxamide] came in with an IC50 of 42500 nM and an inhibition at 100 µM of more than 25%. The EMSA screening results in assay [1] was “Positive (A compound showing >25% inhibition when tested at 100µM concentration is considered as "positive")”. Besides, the IC50 in assay [2] (setting [3]) came out at 702 nM.

As for `COc1ccnc(-c2nc(O)c(O)c(C(=O)N[C@@H](C)C3CCCCC3)n2)c1` [Compound 69, N-[(1S)-1-cyclohexylethyl]-2-(4-methoxypyridin-2-yl)-5,6-bis(oxidanyl)pyrimidine-4-carboxamide], the IC50 on NC(11-55) came out at 49000 nM; in assay [2] (setting [3]) it was 357 nM. Besides, the inhibition at 100 µM at NC(11-55) was more than 25%. In addition, the EMSA screening results in assay [1] is “Positive (A compound showing >25% inhibition when tested at 100µM concentration is considered as "positive")”.

For `C[C@@H](NC(=O)c1nc(-c2cc(C(F)(F)F)ccn2)nc(O)c1O)C1CCCCC1` [Compound 27, (R)-N-(1-cyclohexylethyl)-5,6-dihydroxy-2-(4-(trifluoromethyl)pyridin-2-yl)pyrimidine-4-carboxamide], at NC(11-55), the IC50 was determined as 12500 nM and the inhibition at 100 µM is more than 25%. For the same compound, the EMSA screening results in assay [1] was “Positive (A compound showing >25% inhibition when tested at 100µM concentration is considered as "positive")”. The IC50 in assay [2] (setting [3]) is 433 nM.

Regarding `C[C@@H](NC(=O)c1nc(-c2cccc(C(F)(F)F)n2)nc(O)c1O)C1CCCCC1` [Compound 44, (R)-N-(1-cyclohexylethyl)-5,6-dihydroxy-2-(6-(trifluoromethyl)pyridin-2-yl)pyrimidine-4-carboxamide], at NC(11-55), the inhibition at 100 µM is more than 25%. In addition, the EMSA screening results in assay [1] is “Positive (A compound showing >25% inhibition when tested at 100µM concentration is considered as "positive")”. The IC50 in assay [2] (setting [4]) is 936 nM.

On NC(11-55), `C[C@@H](NC(=O)c1nc(-c2ccc(C(F)(F)F)cn2)nc(O)c1O)C1CCCCC1` [Compound 36, (R)-N-(1-cyclohexylethyl)-5,6-dihydroxy-2-(5-(trifluoromethyl)pyridin-2-yl)pyrimidine-4-carboxamide] showed an IC50 of 22500 nM and an inhibition at 100 µM of more than 25%. In addition, the EMSA screening results in assay [1] was “Positive (A compound showing >25% inhibition when tested at 100µM concentration is considered as "positive")”. Further, the half-inhibitory concentration (IC50) in assay [2] (setting [3]) is 132 nM.

At NC(11-55), `CN1CCCC(CNC(=O)c2nc(-c3ccccn3)nc(O)c2O)C1` (centres unmarked) [Compound 7, 5,6-dihydroxy-N-((1-methylpiperidin-3 - yl)methyl)-2-(pyridin-2-yl)pyrimidine-4-carboxamide] displayed an IC50 of 335000 nM and an inhibition at 100 µM of more than 25%. The EMSA screening results in assay [1] was “Positive (A compound showing >25% inhibition when tested at 100µM concentration is considered as "positive")”. Moreover, the IC50 in assay [2] (setting [3]) is more than 50000 nM.

At NC(11-55), `CC(NC(=O)c1nc(-c2ccccn2)nc(O)c1O)C1CCCC1` (centres unmarked) [Compound 65, N-(1-cyclopentylethyl)-5,6-dihydroxy-2-(pyridin-2-yl)pyrimidine-4-carboxamide] displayed an IC50 of 47000 nM and an inhibition at 100 µM of more than 25%. Also, the EMSA screening results in assay [1] is listed as “Positive (A compound showing >25% inhibition when tested at 100µM concentration is considered as "positive")”. In addition, in assay [2] (setting [3]), the IC50 is 330 nM.

In turn, `C[C@@H](NC(=O)c1nc(-c2ncccc2C(F)(F)F)nc(O)c1O)C1CCCCC1` [Compound 30, (R)-N-(1-cyclohexylethyl)-5,6-dihydroxy-2-(3-(trifluoromethyl)pyridin-2-yl)pyrimidine-4-carboxamide] yielded an inhibition at 100 µM against NC(11-55) of more than 25%. Besides, the EMSA screening results in assay [1] is given as “Positive (A compound showing >25% inhibition when tested at 100µM concentration is considered as "positive")”. For the same compound, the IC50 in assay [2] (setting [4]) turned out to be 1730 nM.

On NC(11-55), `CC1(C)CCC(NC(=O)c2nc(-c3ccccn3)nc(O)c2O)CC1` [Compound 58, N-(4,4-dimethylcyclohexyl)-5,6-dihydroxy-2-(pyridin-2-yl)pyrimidine-4-carboxamide] registered an IC50 of 23000 nM and an inhibition at 100 µM of more than 25%. Further, in assay [1], the EMSA screening results was “Positive (A compound showing >25% inhibition when tested at 100µM concentration is considered as "positive")”. Also, the IC50 in assay [2] (setting [3]) is 268 nM.

Turning to `C[C@@H](NC(=O)c1nc(-c2ccc(CO)cn2)nc(O)c1O)C1CCCCC1` [Compound 55, (R)-N-(1-cyclohexylethyl)-5,6-dihydroxy-2-(5-(hydroxymethyl)pyridin-2-yl)pyrimidine-4-carboxamide], the IC50 at NC(11-55) (cTAR DNA 0.1 µM, 1 µM NC(11-55), 20 °C, pH 7.5, read-out: NC inhibition IC50) amounted to 40000 nM; in assay [2] (setting [3]), 504 nM. At NC(11-55), this compound returned an inhibition at 100 µM of more than 25%. Moreover, the EMSA screening results in assay [1] was “Positive (A compound showing >25% inhibition when tested at 100µM concentration is considered as "positive")”.
